Here are results for 32 compounds from BindingDB's records for doi:10.1021/jm00397a034 (Hoffmann-La Roche, 1988).

Molecules are shown by their SMILES.

The first test has as its target Platelet-activating factor receptor (Canis familiaris). Kind of test: ChEBML_158835. The method, then:
Ability to inhibit platelet activating factor (PAF) binding to platelets by 50% was determined by using [3H]PAF as radioligand
`CC(CCCc1cccnc1)NC(=O)c1ccc2nc3ccc(C(C)C)cc3c(=O)n2c1` (configuration not stated): the midpoint of inhibition, the IC50, lay at 400 nM. On to `CC(C)c1ccc2nc3ccc(C(=O)N[C@@H](C)CCCc4cccnc4)cn3c(=O)c2c1` [2-Isopropyl-11-oxo-11H-pyrido[2,1-b]quinazoline-8-carboxylic acid (1-methyl-4-pyridin-3-yl-butyl)-amide], for which the IC50 (in general, the concentration that inhibits the measured activity by half) was determined as 600 nM. As to `CC(C)c1ccc2nc3ccc(C(=O)N[C@H](C)CCCc4cccnc4)cn3c(=O)c2c1` [2-Isopropyl-11-oxo-11H-pyrido[2,1-b]quinazoline-8-carboxylic acid (1-methyl-4-pyridin-3-yl-butyl)-amide], the IC50 was 250 nM.

Molecular target in another test: not listed separately
Description: Ability to inhibit platelet activating factor (PAF) binding to platelets by 50% was determined by using [3H]PAF as radioligand.
As for `Cc1cc2nc3ccc(C(=O)NCCCCc4cccnc4)cn3c(=O)c2cc1C`, the IC50 worked out at 250 nM.

For the compound `CC(C)c1ccc2nc3ccc(C(=O)NCCCCc4ccncc4)cn3c(=O)c2c1`, the IC50 was 1300 nM. Same read-out and setting: the figure for `CC(C)c1ccc2nc3ccc(C(=O)NCCCCc4cccnc4)cn3c(=O)c2c1` is 350 nM. Turning to `O=C(NCCCCc1cccnc1)c1ccc2nc3ccc(O)cc3c(=O)n2c1`, the IC50 was determined as 1200 nM. `CC(C)Oc1ccc2nc3ccc(C(=O)NCCCCc4cccnc4)cn3c(=O)c2c1` registered an IC50 of 600 nM. Still for that read-out and setting: for `CC(C)c1ccc2nc3ccc(C(=O)NCCCc4cccnc4)cn3c(=O)c2c1` the value was above 1000 nM; for `CC(C)c1ccc2nc3ccc(C(=O)NCCCCCCCc4cccnc4)cn3c(=O)c2c1`, above 1000 nM. The compound `COc1ccc2nc3ccc(C(=O)NCCCCc4cccnc4)cn3c(=O)c2c1` gave an IC50 of 1000 nM. The same measure, in the same setting: for `Cc1ccc2nc3ccc(C(=O)NCCCCc4cccnc4)cn3c(=O)c2c1` the value was 500 nM; for `CC(C)c1ccc2nc3ccc(C(=O)NC(C)(C)CCCc4cccnc4)cn3c(=O)c2c1`, 1200 nM.

In turn, `COc1ccc2c(=O)n3cc(C(=O)NCCCCc4cccnc4)ccc3nc2c1` gave an IC50 of 370 nM.

With `CC(C)c1ccc2nc3ccc(C(=O)NCCCCc4ccccn4)cn3c(=O)c2c1`, the IC50 is 5000 nM. With `CC(C)c1ccc2nc3ccc(C(=O)NCCCCCc4cccnc4)cn3c(=O)c2c1`, the IC50 was above 1000 nM. For the compound `CC(C)c1ccc2nc3ccc(C(=O)NCCCCn4ccnc4)cn3c(=O)c2c1`, the IC50 was determined as 3500 nM.

As to `O=C(NCCCCc1cccnc1)c1ccc2nc3ccccc3c(=O)n2c1`, the IC50 was 1800 nM. `CC(C)c1ccc2nc3ccc(C(=O)NCCCCCCc4cccnc4)cn3c(=O)c2c1`: the IC50 was found to be 400 nM. `CC(C)c1ccc2nc3ccc(C(=O)NCCCCc4cncnc4)cn3c(=O)c2c1` registered an IC50 of 450 nM. `O=C(NCCCCc1cccnc1)c1ccc2nc3ccc(Br)cc3c(=O)n2c1` registered an IC50 of 700 nM.

In turn, `O=C(NCCCCc1cccnc1)c1ccc2nc3cc(Cl)ccc3c(=O)n2c1` had an IC50 of 1000 nM. `CC(C)c1ccc2nc3ccc(C(=O)NCCc4cccnc4)cn3c(=O)c2c1` yielded an IC50 of 2500 nM. The compound `Cc1cc2nc3ccc(C(=O)NCCCCCC[n+]4ccccc4)cn3c(=O)c2cc1C` [1-{6-[(2,3-Dimethyl-11-oxo-11H-pyrido[2,1-b]quinazoline-8-carbonyl)-amino]-hexyl}-pyridinium] came in with a half-maximal inhibitory concentration (IC50) above 1000 nM. In turn, `Cc1cc2nc3ccc(C(=O)NCCCCc4cncnc4)cn3c(=O)c2cc1C` [2,3-Dimethyl-11-oxo-11H-pyrido[2,1-b]quinazoline-8-carboxylic acid (4-pyrimidin-5-yl-butyl)-amide] returned an IC50 of 100 nM. The same measure, in the same setting: for `CC(C)c1ccc2nc3ccc(CCCCCCc4cccnc4)cn3c(=O)c2c1` [2-Isopropyl-8-(6-pyridin-3-yl-hexyl)-pyrido[2,1-b]quinazolin-11-one] the value was above 1000 nM; for `CC(C)c1ccc2nc3ccc(CNCCCCc4cccnc4)cn3c(=O)c2c1` [2-Isopropyl-8-[(4-pyridin-3-yl-butylamino)-methyl]-pyrido[2,1-b]quinazolin-11-one], above 1000 nM. In turn, `CC(C)c1ccc2nc3ccc(C(=O)OCCCCc4cccnc4)cn3c(=O)c2c1` [2-Isopropyl-11-oxo-11H-pyrido[2,1-b]quinazoline-8-carboxylic acid 4-pyridin-3-yl-butyl ester] gave a half-inhibitory concentration (IC50) above 1000 nM. Regarding `CC(C)c1ccc2nc3ccc(C(=O)NCCCCCCc4cncnc4)cn3c(=O)c2c1` [2-Isopropyl-11-oxo-11H-pyrido[2,1-b]quinazoline-8-carboxylic acid (6-pyrimidin-5-yl-hexyl)-amide], the IC50 worked out at 200 nM. The compound `CC(C)c1ccc2nc3ccc(S(=O)(=O)NCCCCc4cccnc4)cn3c(=O)c2c1` [2-Isopropyl-11-oxo-11H-pyrido[2,1-b]quinazoline-8-sulfonic acid (4-pyridin-3-yl-butyl)-amide] came in with an IC50 above 1000 nM. Compound `Cc1cc2nc3ccc(C(=O)NCCCCc4ccc[n+](C)c4)cn3c(=O)c2cc1C` [3-{4-[(2,3-Dimethyl-11-oxo-11H-pyrido[2,1-b]quinazoline-8-carbonyl)-amino]-butyl}-1-methyl-pyridinium] yielded an IC50 above 1000 nM. As for `Cc1cc2nc3ccc(C(=O)NCCCCc4cnc[n+](C)c4)cn3c(=O)c2cc1C` [5-{4-[(2,3-Dimethyl-11-oxo-11H-pyrido[2,1-b]quinazoline-8-carbonyl)-amino]-butyl}-1-methyl-pyrimidin-1-ium], the IC50 was above 1000 nM.
